Results on 15 compounds are retold here after patent US20250019385A1, “SPIROCYCLIC ANNULATED 2-AMINO-3-CYANO THIOPHENES AND DERIVATIVES FOR THE TREATMENT OF CANCER” (Boehringer Ingelheim International GmbH, priority 2023, published 2025).

The target in assay [1] is KRAS (G12D)::SOS1 protein-protein interaction (Homo sapiens (Human), UniProt P01116, G12D). Kind of assay: KRAS::SOS1 AlphaScreen binding assay (KRAS G12D). To be noted: GDP. From the text:
This assay can be used to examine the potency with which compounds according to the invention binding to (mutated) KRAS inhibit the protein-protein interaction between SOS1 and (mutated) KRAS e.g. KRAS G12C, KRAS G12D. […] Low IC50 values in this assay setting are indicative of strong inhibition of protein-protein interaction between SOS1 and KRAS:
These assays measure the inhibitory effect of compounds on KRAS mutant protein-protein interactions using the Alpha Screen technology by Perkin Elmer.
The following (mutant) enzyme forms of KRAS and interacting proteins are used in these assays at the given concentrations:
KRAS (G12D) 1-169, N-terminal 6His-tag, C-terminal avi-tag (Xtal BioStructures, Inc.); final assay concentration 10 nM and SOS1 564-1049, N-terminal 229 GST-tag, TEV cleavage site (Viva Biotech Ltd); final assay concentration 5 nM;
Test compounds dissolved in DMSO are dispensed onto assay plates (Proxiplate 384 PLUS, white, PerkinElmer; 6008289) using an Access Labcyte Workstation with the Labcyte Echo 55x. For the chosen highest assay concentration of 100 μM, 150 nL of compound solution are transferred from a 10 mM DMSO compound stock solution. A series of eleven fivefold dilutions per compound are transferred to the assay plate, compound dilutions are tested in duplicates. DMSO are added as backfill to a total volume of 150 nL.
The assays run on a fully automated robotic system in a darkened room below 100 Lux. To 150 nl of compound dilution 10 μl of a mix including KRAS mutant protein, SOS1 (final assay concentrations see above) and GDP nucleotide (Sigma G7127; final assay concentration 10 μM) in assay buffer (1×PBS, 0.1% BSA, 0.05% Tween 20) are added into columns 1-24.
After 30 minutes incubation time 5 μl of Alpha Screen bead mix in assay buffer are added into columns 1-23. Bead mix consists of AlphaLISA Glutathione Acceptor Beads (PerkinElmer, Cat No AL109) and AlphaScreen Streptavidin Donor Beads (PerkinElmer Cat No 6760002) in assay buffer at a final assay concentration of 10 μg/mL each.
Plates are kept at room temperature in a darkened incubator. After an additional 60 minutes incubation time the signal is measured in a PerkinElmer Envision HTS Multilabel Reader using the AlphaScreen specs from PerkinElmer.
Each plate contains up to 16 wells of a negative control depending on the dilution procedure (platewise or serial) (DMSO instead of test compound; with KRAS mutant::SOS1 GOP mix and bead mix; column 23) and 16 wells of a positive control (DMSO instead of test compound; with KRAS mutant::SOS1 GOP mix w/o bead mix; column 24).
As internal control known inhibitors of KRAS mutant::SOS1 interaction can be measured on each compound plate.
IC50 values are calculated and analyzed with Boehringer Ingelheim's MEGALAB C50 application using a 4 parametric logistic model.
Tables of example compounds disclosed herein contain IC50 values determined using the above assays (see Table 43).
In general terms: Bead proximity is the source of the signal in Alpha formats.

The test system of assay [2] is Ba/F3 cells KRAS G12C. Nature of the assay: Ba/F3 proliferation assay (KRAS G12C). The format is cell-based. The following applies: Mus musculus, BaF3, 72 h, AlamarBlue viability. The procedure:
Ba/F3 cells are ordered from DSMZ (ACC300, Lot17) and grown in RPMI-1640 (ATCC 30-2001)+10% FCS+10 ng/mL IL-3 at 37° C. in 5% […] atmosphere. Plasmids containing KRASG12 mutants (i.e. […], G12C, G12V) are obtained from GeneScript. To generate KRASG12-dependent Ba/F3 models, Ba/F3 cells are transduced with retroviruses containing vectors that harbor KRASG12 isoforms. Platinum-E cells (Cell Biolabs) are used for retrovirus packaging. Retrovirus is added to Ba/F3 cells. To ensure infection, 4 μg/mL polybrene is added and cells are spinfected. Infection efficiency is confirmed by measuring GFP-positive cells using a cell analyzer. Cells with an infection efficiency of 10% to 20% are further cultivated and puromycin selection with 1 μg/mL is initiated. As a control, parental Ba/F3 cells are used to show selection status. Selection is considered successful when parental Ba/F3 cells cultures died. To evaluate the transforming potential of KRASG12 mutations, the growth medium is no longer supplemented with IL-3. Ba/F3 cells harboring the empty vector are used as a control. Approximately ten days before conducting the experiments, puromycin is left out.
For proliferation assays, Ba/F3 cells are seeded into 384-well plates at 1.5×1 (M cells/60 μL in growth media (RPMI-1640+10% FCS). Compounds (10 mM stock in DMSO) are added at logarithmic dose series using the ECHO acoustic liquid handler system (Beckman Coulter), normalizing for added DMSO and including DMSO controls. All compound treatments are performed in technical duplicates. For the TO time point measurement, untreated cells are analyzed at the time of compound addition. Treated cells are incubated for 72 h at 37° C. with 5% CO2 and cell viability is measured in the PerkinElmer Envision Multimode Reader using AlamarBlue™ (ThermoFisher) viability stain. Viability (stated as percent of control) is defined as relative fluorescence units RFU of each well divided by the RFU of cells in DMSO controls. IC50 values are determined from viability measurements by non-linear regression using a four-parameter model.

Assay [3] relates to NCI-H358 cells. Nature of the assay: NCI-H358 CTG proliferation assay (120 h) (NSCLC, G12C). To be noted: Homo sapiens. The format is cell-based. The procedure:
NCI-H358 cells (ATCC No. CRL-5807) are dispensed into black 384-well plates, flat and clear bottom (Greiner, PNr. 781091) at a density of 200 cells per well in 60 μl RPMI-1640 ATCC-Formulation (Gibco #A10491)+10% FCS (fetal calf serum). Cells are incubated overnight at 37° C. in a humidified tissue culture incubator at 5% CO2. Compounds (10 mM stock in DMSO) are added at logarithmic dose series using the ECHO acoustic liquid handler system (Beckman Coulter), normalizing for added DMSO and including DMSO controls. All compound treatments are performed in technical duplicates. For the TO time point measurement, untreated cells are analyzed at the time of compound addition. Plates are incubated for 120 h, and cell viability is measured using CellTiter-Glo luminescent cell viability reagent (Promega product code G7570). Viability (stated as percent of control) is defined as relative luminescence units RLU of each well divided by the RLU of cells in DMSO controls. IC50 values are determined from viability measurements by non-linear regression using a four-parameter model.
IC50 values of representative compounds according to the invention measured with these assays in the indicated cell lines are presented in Table 46.

Each structure is given as a SMILES string.

Sequence of KRAS (G12D)::SOS1 protein-protein interaction (P01116 other isoform, or with tags, fused parts or gaps G12D): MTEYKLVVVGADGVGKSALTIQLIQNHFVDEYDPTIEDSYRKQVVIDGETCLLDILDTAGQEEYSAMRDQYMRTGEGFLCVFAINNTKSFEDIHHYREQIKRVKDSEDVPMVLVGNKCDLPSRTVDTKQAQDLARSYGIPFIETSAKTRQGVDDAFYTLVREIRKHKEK

With `C[C@H](Oc1nc(-c2onc3c2CCC[C@@]32CCCc3sc(N)c(C#N)c32)nc2c1n(C)c(=O)n2[C@H]1CCC[C@@H]1O)[C@@H]1CCCN1C` [I-19], the IC50 (as a rule, the concentration that inhibits the measured activity by half) turned out to be 3 nM in assay [1], 406 nM in assay [2] and 201 nM in assay [3].

Consider `C[C@H](Oc1nc(-c2onc3c2CCC[C@@]32CCCc3sc(N)c(C#N)c32)nc2c1n(C)c(=O)n2[C@@H]1CCOC1)[C@@H]1CCCN1C` [I-20], for which the concentration for half-maximal inhibition (IC50) stood at 1 nM in assay [1], 4 nM in assay [2] and 4 nM in assay [3].

`CCn1c(=O)n([C@@H]2CCOC2)c2nc(-c3onc4c3CCC[C@@]43CCCc4sc(N)c(C#N)c43)nc(O[C@@H](C)[C@@H]3CCCN3C)c21` [I-21]: the IC50 in assay [1] came to 1 nM; in assay [2], 8 nM; in assay [3] it was 3 nM.

As to `C[C@H](Oc1nc(-c2onc3c2CCC[C@@]32CCCc3sc(N)c(C#N)c32)nc2c1n(C)c(=O)n2[C@@H]1CCOC1)[C@@H]1C[C@@H](F)CN1C` [I-22], the IC50 was found to be 2 nM in assay [1], 10 nM in assay [2] and 7 nM in assay [3].

Turning to `CO[C@H]1CCN(C)[C@@H]1[C@H](C)Oc1nc(-c2onc3c2CCC[C@@]32CCCc3sc(N)c(C#N)c32)nc2c1n(C)c(=O)n2[C@@H]1CCOC1` [I-23], the IC50 worked out at 1 nM in assay [1], 4 nM in assay [2] and 4 nM in assay [3].

For `C[C@H](Oc1nc(-c2onc3c2CCC[C@@]32CCCc3sc(N)c(C#N)c32)nc2c1n(C)c(=O)n2C1COC1)[C@@H]1CCCN1C` [I-24], the values for the IC50 in assay [1], in assay [2] and in assay [3] were 3 nM, 59 nM and 93 nM, respectively.

For `C[C@H](Oc1nc(-c2onc3c2CCC[C@@]32CCCc3sc(N)c(C#N)c32)nc2c1n(C)c(=O)n2[C@@H]1CCOC1)C12CCCN1CCC2` [I-25], the IC50 in assay [1] came to 2 nM; in assay [2], 12 nM; in assay [3] it was 6 nM.

On to `C[C@H](Oc1nc(-c2onc3c2CCC[C@@]32CCCc3sc(N)c(C#N)c32)nc2c1n(C)c(=O)n2[C@@H]1CCOC1)[C@@H]1CC[C@H](C)N1C` [I-26], for which the IC50 in assay [1] worked out at 1 nM; in assay [2] it was 3 nM; in assay [3], 7 nM.

As to `C[C@H](Oc1nc(-c2onc3c2CCC[C@@]32CCCc3sc(N)c(C#N)c32)nc2c1n(C)c(=O)n2[C@@H]1CCOC1)[C@@H]1C[C@H](F)CN1C` [I-27], the IC50 in assay [1] was 2 nM; in assay [2] it was 26 nM; in assay [3], 39 nM.

Turning to `C[C@H](Oc1nc(-c2onc3c2CCC[C@@]32CCCc3sc(N)c(C#N)c32)nc2c1n(C)c(=O)n2[C@@H]1CCOC1)[C@@H]1C[C@@H]2C[C@@H]2N1C` [I-28], the IC50 came out at 4 nM in assay [1], 26 nM in assay [2] and 55 nM in assay [3].

For the compound `C[C@H](Oc1nc(-c2onc3c2CCC[C@@]32CCCc3sc(N)c(C#N)c32)nc2c1n(C)c(=O)n2[C@@]12COC[C@@H]1C2)[C@@H]1CCCN1C` [I-29], the half-maximal inhibitory concentration (IC50) in assay [1] is 1 nM; in assay [2], 2 nM; in assay [3] it was 2 nM.

As for `CCn1c(=O)n([C@@H]2CCCOC2)c2nc(-c3onc4c3CCC[C@@]43CCCc4sc(N)c(C#N)c43)nc(O[C@@H](C)[C@@H]3CCCN3C)c21` [I-30], the figures for the IC50 in assay [1], in assay [2] and in assay [3] were 2 nM, 11 nM and 7 nM, respectively.

Consider `CO[C@H]1C[C@@H](n2c(=O)n(C)c3c(O[C@@H](C)[C@@H]4CCCN4C)nc(-c4onc5c4CCC[C@@]54CCCc5sc(N)c(C#N)c54)nc32)C1` [I-31], for which the IC50 came to 1 nM in assay [1], 52 nM in assay [2] and 60 nM in assay [3].

As to `CC(C)n1c(=O)n([C@@H]2CCOC2)c2nc(-c3onc4c3CCC[C@@]43CCCc4sc(N)c(C#N)c43)nc(O[C@@H](C)[C@@H]3CCCN3C)c21` [I-32], the IC50 stood at 2 nM in assay [1], 23 nM in assay [2] and 32 nM in assay [3].

Turning to `CCn1c(=O)n([C@@H]2CCCOC2)c2nc(-c3onc4c3CCC[C@@]43CCCc4sc(N)c(C#N)c43)nc(OC[C@@]34CCCN3C[C@H](F)C4)c21` [I-33], the IC50 in assay [1] stood at 126 nM; in assay [2] it was 1600 nM; in assay [3], 921 nM.
